Reference: paper PMC12643529 (ACS Infectious Diseases, 2025)
Read-outs that look alike come from different tables or passages of the source.

Assays:
[1] = system: FEbr1T (T. brucei G-quadruplex); assay: FRET melting assay, FEbr1T; format: binding; conditions: oligonucleotide 200 nM
[2] = system: Fmt6363T (human mitochondrial G-quadruplex); assay: FRET melting assay, Fmt6363T; format: binding; conditions: oligonucleotide 200 nM
[3] = system: FMycT (c-Myc promoter G4); assay: FRET melting assay, FMycT; format: binding; conditions: oligonucleotide 200 nM
[4] = system: F10T (hairpin duplex DNA); format: binding; conditions: oligonucleotide 200 nM
MRC-5 cells [5] = system: MRC-5 cells; set-up: method as in number not given; conditions: footnote c 'From ref', ref number not given; cited from earlier work
[6] = system: F21T Na+ (human telomeric G-quadruplex, sodium buffer); format: binding; conditions: oligonucleotide 200 nM
[7] = system: promastigote form of L. major; set-up: method as in number not given; conditions: promastigotes; footnote c 'From ref', ref number not given; cited from earlier work
[8] = system: bloodstream form of T. brucei; set-up: method as in number not given; conditions: footnote c 'From ref', ref number not given; cited from earlier work
[9] = system: F21T K+ (human telomeric G-quadruplex, potassium buffer); format: binding; conditions: oligonucleotide 200 nM
[10] = system: F10T (DNA, hairpin, hexaethylene glycol (HEG, [(-CH2CH2O-)6]) linker between 10 and 11) TATAGCTATATATAGCTATA; assay: FRET melting; conditions: K+ (10 mM KCl), 90 mM LiCl; 10 mM Li cacodylate; compound 10 µM, DNA 200 nM
MRC-5 cells [11] = assay: alamarBlue cytotoxicity assay, MRC-5; format: cell-based; conditions: MRC5, human lung fibroblasts, 72 h
[12] = system: Fmt6363T (DNA, G4) AGGGACGCGGGCGGGGGATATAGGGT; assay: FRET melting; conditions: K+ (10 mM KCl), 90 mM LiCl; 10 mM Li cacodylate; compound 10 µM, DNA 200 nM
[13] = system: bloodstream form of T. brucei; assay: alamarBlue (resazurin) antitrypanosomal assay; format: cell-based, Trypanosoma brucei; conditions: Trypanosoma brucei; bloodstream form, 72 h, alamarBlue/resazurin; error as σ
other G4 sequences = assay: FRET melting assay, other examined G4s; format: binding; conditions: ligand 10 μM; range over the remaining G4s
Procedure: The stabilization of G4 structures was initially evaluated by using the Förster resonance energy transfer (FRET) melting assay. This analysis evaluated the binding of the compounds against four G4-forming oligonucleotides and a hairpin duplex sequence to determine both G4:duplex and G4:G4 selectivity.
FRET melting assays were performed to assess ligand affinity for duplex and G-quadruplex DNA.
proximity of the donor and quencher result in no observed fluorescence from FAM, since energy
is transferred non-radiatively to TAMRA by FRET. As the temperature is raised and the secondary
structure denatures, the fluorophores move further apart and the fluorescence signal increases.
From the resulting curve, the characteristic melting temperature (Tmax, also referred to as Tm) is
defined as the temperature which corresponds to the maxima of the first derivative of the
normalised fluorescence signal. The change in melting temperature (ΔTm) induced by the presence
of a small molecule ligand provides an indication of the ligand’s ability to stabilise the DNA
co-workers 12 on an AriaMx qPCR instrument.
min, before heating at 1 °C/min to 96 °C in 1 °C increments, followed by monitoring the
fluorescence output at each increment for 1 min. The fluorescence emission of FAM was followed
The final concentration of oligonucleotide was 200 nM in all cases. For F21T in Na+ conditions, […]

BSF T. brucei parasites = assay: CellTiter-Glo luminescent cell viability assay; format: cell-based; conditions: Trypanosoma brucei, 72 h, read-out: IC50 T. brucei (CellTiter-Glo)
Procedure: Ten μL portion of Cell Titer Glo was then added to every well, and after 10 min of incubation at room temperature, the luminescence of the plates was recorded using the Infinite F200 plate reader (TECAN Austria, GmbH). […] Presented data are the mean value of three independent measurements, all of them conducted under triplicate conditions.

[14] = system: FEbr1T (DNA, G4) GGGCAGGGGGTGATGGGGAGGAGCCAGGG; assay: FRET melting; conditions: K+ (10 mM KCl), 90 mM LiCl; 10 mM Li cacodylate; compound 10 µM, DNA 200 nM
[15] = system: promastigote form of L. major; assay: MTT-based antileishmanial assay, promastigotes; format: cell-based, Leishmania major; conditions: for IC50: Leishmania major, promastigotes, 72 h, MTT, error as σ
Procedure: The antileishmanial activity of the compounds against the promastigote form of L. major, the […] was determined using an MTT-based assay (Sigma-Aldrich). Stock solutions of the compounds were prepared in DMSO with the final DMSO percentage in each well maintained below 1%. 4 × 10^6 parasites per mL were incubated at 28 °C in 96-well plates (50 μL/well) either alone or in the presence of increasing concentrations of compounds DMSO for 72 h. After the incubation period, 10 μL of MTT (5 mg/mL) was added to each well, and the parasites were incubated for 4 h at 28 °C. Subsequently, cell lysis was performed using 50 μL/well of 20% SDS. […] Data were presented as the average of at least three independent measurements, each conducted under triplicate conditions. […] “single marker” […] S7

[16] = system: F21T (DNA, G4) GGGTTAGGGTTAGGGTTAGGG; assay: FRET melting; conditions: 10 mM Li cacodylate, compound 10 µM, DNA 200 nM
[17] = system: telo23 (DNA, G4) TAGGGTTAGGGTTAGGGTTAGGG; assay: CD titration; conditions: K+ (100 mM potassium phosphate); pH 7.4, 20 °C, DNA 5 µM
[18] = system: Ebr1 (DNA, G4) GGGCAGGGGGTGATGGGGAGGAGCCAGGG; assay: CD titration; conditions: K+ (100 mM potassium phosphate); pH 7.4, 20 °C, DNA 5 µM
HT-29 cells = assay: alamarBlue antiproliferative assay, HT-29; format: cell-based, human; conditions: for IC50: Homo sapiens, HT-29, 72 h, alamarBlue
mt6363 G4 = assay: UV-vis absorbance titration; format: binding, human; conditions: ligand 10 μM, 100 mM potassium phosphate, pH 7.4; numbers only in Figure 6
Procedure: Furthermore, the analysis confirmed its selectivity for G4 structures over duplex DNA.
6 (A) Equilibrium binding constants calculated for compounds 2b and 2c with several G-quadruplexes (telo23, Ebr1, and mt6363) and a duplex DNA (ds26) sequence. (B) UV–vis titration of 2b with telo23, mt6363, Ebr1, and ds26. Buffer = 100 mM potassium phosphate, pH 7.4. Ligand concentration: 10 μM. […]
oligonucleotides were at a concentration of 5 µM in potassium phosphate buffer (100 mM, pH 7.4). Data processing was carried out using Python and Prism 10 (GraphPad Software) with a 4-point second order smoothing polynomial applied to all spectra. Observed ellipticities were converted to molar ellipticity.
Absorbance spectra were recorded on a Cary 60 UV-Visible spectrophotometer using a room-light immune fibre optic probe with 10 mm path length. The UV-Vis spectra were recorded between 700 – 300 nm and were corrected for background and buffer absorbance.
In the titrations, the concentration of ligand was fixed at 10 µM in an initial volume of 500 µL in potassium phosphate buffer (100 mM, pH 7.4). […]
Table S1. Synthesis and photophysical data in acetonitrile solution (absorption, λabs, fluorescence emission maxima, λfluo, molar absorptivity, Ɛ and fluorescence quantum yield, ɸF) for the 2-ethenyl-benzothiazolium derivatives 2a-j. […]

[19] = system: mt6363 (DNA, G4) AGGGACGCGGGCGGGGGATATAGGGT; assay: CD titration; conditions: K+ (100 mM potassium phosphate); pH 7.4, 20 °C, DNA 5 µM
HeLa cells = assay: alamarBlue antiproliferative assay, HeLa; format: cell-based, human; conditions: for IC50: Homo sapiens, HeLa, 72 h, alamarBlue
[20] = system: intracellular amastigote form of L. major; assay: Luciferase assay, intracellular amastigotes in THP-1 macrophages; format: cell-based, Leishmania major; conditions: Leishmania major
Procedure: The antileishmanial activity of the compounds against the intracellular form of L. major was evaluated using the Luciferase Assay System kit from Promega. THP-1 cells were seeded at a density of 3 × 10^5 cells/mL in 96-well plates (100 μL/well) and treated with 20 ng/mL PMA (phorbol 12-myristate 13-acetate, Sigma) for 48 h to induce differentiation. Postdifferentiation, the cells were washed, and fresh medium was added (100 μL/well) before being reincubated. Following an additional 24 h, the wells were washed, and 50 μL of L. major parasites at a density of 1.5 × 10^6 parasites/mL (suspended in RPMI-1640 medium 5% hiFBS and 5% penicillin/streptomycin) were added to the wells. The plates were then incubated at 35 °C in 5% CO2. After 24 h, the wells were washed three times with PBS, and fresh medium with increasing concentrations of compounds was added (100 μL/well). After another 72 h of incubation, the cells were then treated with 25 μL of lysis buffer and stored at −80 °C. Following 24 h, 25 μL of luciferase enzyme substrate was added to each well, and the luciferase activity of the amastigotes was determined using a TECAN Infinite F200 microplate reader. […] Data were presented as the average of at least three independent measurements, each conducted under triplicate conditions.
Parasite and cell culturing […]
Leishmania major (MHOM/IL/80/Friedlin) promastigotes and its derivative luminescent strain L. major LucRE9 with the luciferase gene integrated into the parasite genome (LUC) were cultured at 28 °C, 5 % CO2 in modified RPMI-1640 medium (Invitrogen, Carlsbad, CA) supplemented with 10 % hiFBS6, including […] blasticidin in the LucRE9 strain. 7 Parasites were maintained in culture in their […] growth phase (below 2 million T. brucei parasites per mL, ,10 million L. major parasites per mL for promastigotes experiments), and in the stationary phase , 20 million L. major parasites per mL for THP -1 infection experiments.
MRC-5 cell line (human lung fibroblast) was grown in monolayer at 37 °C, 5 % CO2 in DMEM medium (1 g/L glucose) supplemented with 10% hiFBS, 100 U/mL penicillin, […] streptomycin and 2 mM L-glutamine.8
THP-1 cells (human monocytic cell line) were maintained in RPMI-1640 medium supplemented with 10% heat-inactivated fetal bovine serum (hiFBS) and 5 % penicillin/streptomycin (37 °C, 5 % CO2, and 100 % humidity). […]

THP-1 cells = assay: alamarBlue cytotoxicity assay, PMA-differentiated THP-1; format: cell-based, human; conditions: Homo sapiens, PMA-differentiated THP-1, 72 h
[21] = system: FMycT (DNA, G4) TTGAGGGTGGGTAGGGTGGGTAA; assay: FRET melting; conditions: K+ (1 mM KCl), 99 mM LiCl; 10 mM Li cacodylate; compound 10 µM, DNA 200 nM

Row | Compound | ΔTm FEbr1T ([1]; ligand 10 μM, 10 mM KCl) [°C] | ΔTm [10] [°C] | IC50 (MRC-5 cells [11]) [nM] | ΔTm [12] [°C] | ΔTm Fmt6363T ([2]; ligand 10 μM, 10 mM KCl) [°C] | IC50 [13] [nM] | ΔTm FMycT ([3]; ligand 10 μM, 1 mM KCl) [°C] | ΔTm F10T ([4]; ligand 10 μM, 10 mM KCl) [°C] | ΔTm [14] [°C] | IC50 [15] [nM] | ΔTm ([16]; K+ (10 mM KCl), 90 mM LiCl) [°C] | ΔTm F21T Na+ ([6]; ligand 10 μM, 100 mM NaCl) [°C] | ΔTm F21T K+ ([9]; ligand 10 μM, 10 mM KCl) [°C] | IC50 (HT-29 cells) [nM] | IC50 (HeLa cells) [nM] | further results
1 | C[n+]1ccc(-c2c3nc(c(-c4cc[n+](C)cc4)c4ccc([nH]4)c(-c4cc[n+](C)cc4)c4ccc([nH]4)c(-c4cc[n+](C)cc4)c4nc2C=C4)C=C3)cc1 [TMPyP4, reference compound] |  |  |  |  |  |  |  |  |  |  |  |  |  |  |  | ΔTm FEbr1T ([1]; positive control at 1 μM): 12.4 ± 0.9 °C; ΔTm Fmt6363T ([2]; positive control at 1 μM): 7.1 ± 0.4 °C; ΔTm FMycT ([3]; positive control at 1 μM): 12.6 ± 1.1 °C; ΔTm F10T ([4]; positive control at 1 μM): 1.7 ± 0.1 °C; IC50 (MRC-5 cells [5]): > 25000 nM; ΔTm F21T Na+ ([6]; positive control at 1 μM): 10.4 ± 0.4 °C; IC50 [7]: 20800 ± 4860 nM; IC50 [8]: > 10000 nM; ΔTm F21T K+ ([9]; positive control at 1 μM): 16.4 ± 0.4 °C
2 | Cc1ccc2c(c1)sc(-c1ccc(N(C)C)cc1)[n+]2C [ThT, Thioflavin T, reference compound] | 4.5 ± 0.7 | 0.1 ± 0.1 | 183 ± 38 | 2.9 ± 0.4 | 2.9 ± 0.4 | 4.7 ± 0.3 | 15.0 | 0.1 ± 0.1 | 4.5 ± 0.7 | 23 ± 0.2 | 5.5 ± 0.2 | 1.4 ± 0.2 | 5.5 ± 0.2 |  |  | ΔTm for the other examined G4 sequences (other G4 sequences): 1.4–5.5 °C; IC50 (BSF T. brucei parasites; BSF parasites, luminescence): 62 ± 3 nM
3 | CN(C)c1ccc(/C=C/c2sc3ccccc3[n+]2C)cc1.[I-] [compound 2b] | 13.1 | 2.3 ± 0.2 |  | 19.8 ± 0.4 | 19.8 | 0.019 ± 0.0053 | 8.6 ± 0.9 | 2.3 ± 0.2 |  |  |  | 9.1 ± 0.3 | 13.1 ± 0.5 | 6560 ± 490 | 9280 ± 770 | binding [17]: yes; binding [18]: yes; binding affinity (equilibrium binding constant) (mt6363 G4): higher affinity for the mt6363 G4 structure compared with the other G4 sequences; IC50 (BSF T. brucei parasites): 0.55 ± 0.23 nM; binding [19]: yes; IC50 ([20]; THP-1, intracellular amastigotes): 0.48 nM; IC50 ([20]; intracellular amastigotes in THP-1 macrophages, 72 h, luciferase): 0.484 ± 0.617 nM; IC50 (THP-1 cells): 480 ± 110 nM
4 | C[n+]1c(/C=C/c2ccc(-c3ccc(-c4ccc(N(c5ccccc5)c5ccccc5)cc4)cc3)o2)sc2ccccc21.[I-] [compound 2d] | 20.5 |  | 3240 ± 140 |  | 18.5 ± 0.9 | 10 ± 5 | 16.7 ± 0.7 | 1.0 ± 0.1 | 20.5 ± 1.3 | 330 ± 17 | 18.5 ± 1.9 | 22.9 ± 0.9 | 18.5 | 3790 ± 130 | 5280 ± 110 | selectivity index (SI) HT-29 (HT-29 cells; SI = IC50 MRC-5/IC50 HT-29): 0.86; ΔTm [21]: 16.7 ± 0.7 °C; selectivity index (SI) L. major ([15]; SI = IC50 MRC-5/IC50 L. major promastigotes): 9.8; ΔTm ([16]; Na+ (100 mM NaCl)): 22.9 ± 0.9 °C; selectivity index (SI) HeLa (HeLa cells; SI = IC50 MRC-5/IC50 HeLa): 0.62
